Converted amounts (≈) assume the structure as drawn.
Tests used:
[1] = system: MDA-MB-231 breast cancer cells; assay: Murine flank tumour model, synthesized compound (II) (DHODO): tumour volume; format: in vivo, nude mice (strain J:NU)
Procedure: (§1) Test material was dissolved in DMSO and the final injectable solution was prepared using PBS. Homozygous outbred nude mice (strain J:NU, 6-weeks old, female) suitable as immune-deficient tumour transplant hosts will be procured from a commercial supplier (Jackson Labs, Maine, USA) and acclimatized in a barrier facility (AVC) for one week. Mice were weighed and random groups of ten mice were established based on the tumour volume and body weight as follows: To establish the tumours, MDA-MB-231 breast cancer cells (2.5 million cells in 100 pl 50:50 matrigel:DMEM) were injected subcutaneously into both right and left flanks. Tumours were evaluated over a 2-week period until sufficient volume growth (approximately 20 mm3) for subsequent analysis had occurred. During this period, body weights were measured twice weekly. Mice with established tumours were treated every second day by intraperitoneal injections of test compounds over a 4-week time course. From each group a minimum of 15 tumours were selected for analysis. Tumours were measured weekly using external calipers and volumes established using the modified ellipsoidal formula: tumour volume=0.5 (length×width2). In addition, body weights and general animal health were assessed twice weekly during the treatment period. At study termination, mice were sacrificed and tumours excised from the flank was weighed. To evaluate tumour metastasis, an explorative necropsy was conducted in each mouse and the presence and frequency of additional tumours at sites distal to the flank were assessed.

[2] = system: MDA-MB-231 human breast cancer cells; assay: Murine flank tumor model, pure compound (II): tumor volume and weight; format: in vivo, nude mice (strain J:NU); conditions: for Tumour weight (mg) ± SEM, extracted at necropsy: intraperitoneal every second day, 4 weeks
Procedure: Animal studies were conducted under ACC protocol #17-020 and Biosafety protocol #6007077 approved by the Atlantic Veterinary College (AVC, UPEI). Briefly, homozygous outbred nude mice (strain J:NU, 4-weeks old, female) suitable as immunodeficient tumor transplant hosts were procured from a commercial supplier (Jackson Labs, Maine, USA) and acclimatized in a barrier facility (AVC, UPEI) for one week.
To establish the tumors, MDA-MB-231 human breast cancer cells were cultured in vitro and harvested when they were between 60 to 80% confluent. Under anesthetized conditions, each the mouse was injected subcutaneously into both right and left flanks with […] (50:50 in matrigel:DMEM). Tumors development was monitored over a 2-week period. At 2 weeks, tumor established mice (tumor volume ˜20 mm^3) were selected and randomly grouped based on the tumor volume and body weight into ten mice per group as follows: • Group 1: Vehicle control (VC, DMSO 2%, Kholliphor EL 2%) • Group 2: Compound (II), 10 mg/kg body weight • Group 3: Compound (II), 5 mg/kg body weight
Seaweed extract was dissolved in molecular grade DMSO, liquid emulsion was prepared in Kholliphor EL (Sigma, USA) and the final injectable solution was prepared using sterile normal saline.
Mice with established tumors were treated every second day by intraperitoneal injections of test extracts over a 4-week time course. From each group a minimum of 16 tumors were selected for analysis. Tumors were measured weekly using external calipers and volumes established using the modified ellipsoidal formula: tumor volume=0.5 (length×width^2).
In addition, body weights and general animal health were assessed twice weekly during the treatment period. At study termination, mice were sacrificed, and tumors excised from the flank. To evaluate tumor metastasis, an explorative necropsy was conducted in each mouse and the presence and frequency of additional tumors at sites distal to the flank were assessed. Tumor tissue from the flank region was collected and preserved in 10% neutral buffered formalin for histology. Variance within each of the treatment groups to vehicle control was assessed over the four-week time course by one-way ANOVA.

[3] = Murine flank tumour model, synthesized compound (II) (DHODO): body weights; format: in vivo, nude mice (strain J:NU)
Procedure: as §1, with “To” for “Test material was dissolved in DMSO and the final injectable solution was prepared using PBS. Homozygous outbred nude mice (strain J:NU, 6-weeks old, female) suitable as immune-deficient tumour transplant hosts will be procured from a commercial supplier (Jackson Labs, Maine, USA) and acclimatized in a barrier facility (AVC) for one week. Mice were weighed and random groups of ten mice were established based on the tumour volume and body weight as follows: To”

[4] = system: MDA-MB-231 (mammary gland adenocarcinoma); assay: CIMA assay (MTT, 72 h); format: cell-based, human; conditions: Homo sapiens, MDA-MB-231
Procedure: Experimental: Stock solutions of the test compounds were prepared in dimethylsulfoxide (DMSO) at 10 mg/ml and stored at −20° C. until used. This preparation ensures that the DMSO content delivered to cells in culture never exceeds 1%. […] Cell proliferation was initially assessed using a standard colorimetric indicator of metabolic activity (CIMA) assay. In this assay, reduction of yellow tetrazolium salt (MTT) to purple formazan by mitochondrial reductases enzymes in viable cells were measured as change in absorbance (λ=500-600).
Seven human cell lines were evaluated: U373 (glioblastoma-astrocytoma), A549 (lung carcinoma), PC3 (prostate adenocarcinoma), THP1 (acute monocytic leukemia), MDA-MB-231 (mammary gland adenocarcinoma), SKOV3 (ovarian adenocarcinoma) and CCD1079Sk (normal skin fibroblast) cells.

SMILES: CCCCC[C@H](O)[C@H](O)/C=C/[C@@H]1CCCCCCCC(=O)O1 [compound (II), 12R, 13S-Dihydroxy-10-Octadecen-9S-olide]
- Tumour weight at necropsy ([1]; 1 mg): 0.0815 g
- Tumour size expressed in volume ([1]; 1 mg/kg, Week 0): 40.59 mm^3
- Tumour size expressed in volume ([1]; 1 mg/kg, Week 1): 36.34 mm^3
- Tumour size expressed in volume ([1]; 1 mg/kg, Week 2): 65.15 mm^3
- Tumour size expressed in volume ([1]; 1 mg/kg, Week 3): 82.66 mm^3
- Tumour size expressed in volume ([1]; 1 mg/kg, Week 4): 110.23 mm^3
- Tumour weight at necropsy ([1]; 5 mg): 0.0380 g
- tumour growth ([1]; 5 mg/kg): inhibited tumour growth
- Tumour volumes reduced by ([1]; 5 mg/kg, intraperitoneal every second day, 4 weeks): 50%
- Tumour size expressed in volume ([1]; 5 mg/kg, Week 0): 44.24 mm^3
- Tumour size expressed in volume ([1]; 5 mg/kg, Week 1): 30.47 mm^3
- Tumour size expressed in volume ([1]; 5 mg/kg, Week 2): 39.17 mm^3
- Tumour size expressed in volume ([1]; 5 mg/kg, Week 3): 43.73 mm^3
- Tumour size expressed in volume ([1]; 5 mg/kg, Week 4): 66.83 mm^3
- Tumour weight at necropsy ([1]; 10 mg): 0.0913 g
- Tumour size expressed in volume ([1]; 10 mg/kg, Week 0): 46.33 mm^3
- Tumour size expressed in volume ([1]; 10 mg/kg, Week 1): 52.86 mm^3
- Tumour size expressed in volume ([1]; 10 mg/kg, Week 2): 71.23 mm^3
- Tumour size expressed in volume ([1]; 10 mg/kg, Week 3): 73.39 mm^3
- Tumour size expressed in volume ([1]; 10 mg/kg, Week 4): 154.29 mm^3
- reduction in tumour growth ([1]; 1 and 10 mg/kg, early exponential tumour growth in these groups): No reduction in tumour growth
- Tumour volumes ± SEM ([2]; 5 mg/kg b. wt. i.p. every second day, Week 0): 26.94 ± 1.98 mm^3
- Tumour volumes ± SEM ([2]; 5 mg/kg b. wt. i.p. every second day, Week 1): 20.83 ± 2.20 mm^3
- Tumour volumes ± SEM ([2]; 5 mg/kg b. wt. i.p. every second day, Week 2): 17.38 ± 2.04*¶ mm^3
- Tumour volumes ± SEM ([2]; 5 mg/kg b. wt. i.p. every second day, Week 3): 17.23 ± 3.18*¶ mm^3
- Tumour volumes ± SEM ([2]; 5 mg/kg b. wt. i.p. every second day, Week 4): 28.01 ± 3.61*¶ mm^3
- Tumour weight (mg) ± SEM, extracted at necropsy ([2]; 5 mg/kg b.wt.): 34.64 ± 15.78 mg
- Tumour volumes ± SEM ([2]; 10 mg/kg b. wt. i.p. every second day, Week 0): 27.09 ± 1.60 mm^3
- Tumour volumes ± SEM ([2]; 10 mg/kg b. wt. i.p. every second day, Week 1): 24.06 ± 1.98 mm^3
- Tumour volumes ± SEM ([2]; 10 mg/kg b. wt. i.p. every second day, Week 2): 17.40 ± 2.88*¶ mm^3
- Tumour volumes ± SEM ([2]; 10 mg/kg b. wt. i.p. every second day, Week 3): 18.95 ± 5.34*¶ mm^3
- Tumour volumes ± SEM ([2]; 10 mg/kg b. wt. i.p. every second day, Week 4): 28.37 ± 9.37*¶ mm^3
- Tumour weight (mg) ± SEM, extracted at necropsy ([2]; 10 mg/kg b.wt.): 27.29 ± 8.07 mg
- tumor volume at the end of 4-weeks (average) ([2]; 5 and 10 mg/kg, controls rose from 26 to 73 mm^3): ~27 mm^3
- change in tumor size during the 4-week study ([2]; both tested concentrations (5 and 10 mg/kg)): no significant change in tumor size
- Body weight change Δ over the four-week trial ([3]; 1 mg/kg): 0.6 g
- Body weight ([3]; 1 mg/kg, Week 1): 21.9 g
- Body weight ([3]; 1 mg/kg, Week 2): 22.5 g
- Body weight ([3]; 1 mg/kg, Week 3): 22.1 g
- Body weight ([3]; 1 mg/kg, Week 4): 22.5 g
- Body weight change Δ over the four-week trial ([3]; 5 mg/kg): 0.9 g
- Body weight ([3]; 5 mg/kg, Week 1): 23.8 g
- Body weight ([3]; 5 mg/kg, Week 2): 24.8 g
- Body weight ([3]; 5 mg/kg, Week 3): 24.3 g
- Body weight ([3]; 5 mg/kg, Week 4): 24.9 g
- Body weight change Δ over the four-week trial ([3]; 10 mg/kg): 0.8 g
- Body weight ([3]; 10 mg/kg, Week 1): 24.2 g
- Body weight ([3]; 10 mg/kg, Week 2): 24.8 g
- Body weight ([3]; 10 mg/kg, Week 3): 24.3 g
- Body weight ([3]; 10 mg/kg, Week 4): 25.0 g
- viability at 1 µg/mL ([4]; MDA-MB, 1 ug/mL, read-out: average cell viability): 101%
- viability at 10 µg/mL ([4]; MDA-MB, 10 ug/mL, read-out: average cell viability): 96%
- viability at 50 µg/mL ([4]; MDA-MB, 50 ug/mL, read-out: average cell viability): 66%
- viability at 100 µg/mL ([4]; MDA-MB, 100 ug/mL, read-out: average cell viability): 20%
- IC50 ([4]; 72 h): 34.3 µg/mL (≈ 110 µM)
